Experiment [1] is described as follows: Inhibition of maltase in mouse intestinal input by glucose release assay.
Experiment [2] can be described thus: Inhibition of lactase in mouse intestinal input by glucose release assay.

Structures are written as SMILES.

Broadly, the IC50 is the concentration that inhibits the measured activity by half. A lower IC50 goes with higher potency. Regarding `CCCCCCCOCCCCCN1C[C@H](O)[C@@H](O)[C@H](O)[C@H]1CO` [N-Heptoxypentyl-1-deoxynojirimycin], the IC50 in experiment [1] amounted to 7 µM; in experiment [2], 250 µM.
As to `CCCCCCCOCCCCCN1C[C@H](O)[C@@H](O)[C@H](O)[C@@H]1CO` [N-Heptoxypentyl-L-ido-1-deoxynojirimycin], the IC50 in experiment [1] was above 1000 µM; in experiment [2] it was 250 µM.

(Values after BindingDB's records for doi:10.1021/ml100192b (2011).)
